Assay results: US8802664B2 (Bioproject, priority 2010, dated 2014)

How the values were obtained:
human H4 receptor = target: T1, human H4 receptor (Homo sapiens, UniProt Q9H3N8); experiment: [3H]Histamine binding on membranes of CHO cells stably expressing human H4 receptor
T1 construct: expressed in transfected cells
Summary of the method: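 Membranes from sub-confluent CHO-hH4 cells, 20 μg protein per well, were incubated in 50 mM Tris/HCl, 0.5 mM EDTA, pH 7.4. Nonspecific binding was defined with 10 μM JNJ 7777120. Bound radioactivity was collected on PEI-soaked GF/B filters and counted by liquid scintillation.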

SMILES	melting point [°C]	Ki or IC50 activity class (human H4 receptor) [nM]
CN1CCC(OC(c2nc3ccccc3[nH]2)c2cc(F)ccc2F)CC1 (centres unmarked) [Example 424, 2-[(2,5-difluorophenyl)(1-methylpiperidin-4-yloxy)methyl]-1H-benzimidazole]	140	< 300
CCOc1cccc(C(NC2CCN(C)CC2)c2nc3ccccc3[nH]2)c1 (centres unmarked) [Example 83, [(1H-benzimidazol-2-yl)(3-ethoxyphenyl)methyl](1-methylpiperidin-4-yl)amine]	74	< 300
CN1CCC(NC(c2cccc([N+](=O)[O-])c2)c2nc3ccccc3[nH]2)CC1 (centres unmarked) [Example 131, [(1H-benzimidazol-2-yl)(3-nitrophenyl)methyl](1-methylpiperidin-4-yl)amine]	254	< 300
CN1CCC(OC(c2cccc(OCCCCN3CCN(C(=O)OC(C)(C)C)CC3)c2)c2nc3ccccc3[nH]2)CC1 (centres unmarked) [Example 343, 4-(4-{3-[(1H-benzimidazol-2-yl)(1-methylpiperidin-4-yloxy)methyl]phenoxy}butyl)piperazine-1-carboxylic acid tert-butyl ester]	64	< 300
CN1CCC(OC(c2ccc3c(c2)OCCO3)c2nc3ccccc3[nH]2)CC1 (centres unmarked) [Example 300, 2-[(2,3-dihydrobenzo[1,4]dioxin-6-yl)(1-methylpiperidin-4-yloxy)methyl]-1H-benzimidazole]	203	< 300
CN1CCC(NC(c2cccc(OCCCCN)c2)c2nc3ccccc3s2)CC1 (centres unmarked) [Example 387, {[3-(4-aminobutoxy)phenyl]benzothiazol-2-yl-methyl}(1-methylpiperidin-4-yl)amine]	67	< 30
CN1CCC(OC(c2cccc(C#CCN)c2)c2nc3ccccc3[nH]2)CC1 (centres unmarked) [Example 194, 3-{3-[(1H-benzimidazol-2-yl)(1-methylpiperidin-4-yloxy)methyl]phenyl}prop-2-ynylamine]	101	< 300
C=Cc1cccc(C(OC2CCN(C)CC2)c2nc3ccccc3s2)c1 (centres unmarked) [Example 218, 2-[(1-methylpiperidin-4-yloxy)(3-vinyl-phenyl)methyl]benzothiazole]	165	< 30
CN1CCC(NC(c2cccc(C(F)(F)F)c2)c2nc3ccccc3[nH]2)CC1 (centres unmarked) [Example 59, [(1H-benzimidazol-2-yl)(3-trifluoromethylphenyl)methyl](1-methylpiperidin-4-yl)amine]	90	< 30
CN1CCC(OC(c2nc3ccccc3[nH]2)c2ccccc2Cl)CC1 (centres unmarked) [Example 151, 2-[(2-chlorophenyl)(1-methylpiperidin-4-yloxy)methyl]-1H-benzimidazole]	212	< 300
CN1CCC(OC(c2ccc(Br)cc2)c2nc3ccccc3[nH]2)CC1 (centres unmarked) [Example 204, 2-[(4-bromophenyl)(1-methylpiperidin-4-yloxy)methyl]-1H-benzimidazole]	122	< 300
CN1CCC(OC(c2nc3ccccc3[nH]2)c2cccc(SCCN)c2F)CC1 (centres unmarked) [Example 352, 2-{3-[(1H-benzimidazol-2-yl)(1-methylpiperidin-4-yloxy)methyl]-2-fluorophenylsulfanyl}ethylamine]	204	< 300
Cc1cc(F)cc(C(NC2CCN(C)CC2)c2nc3ccccc3s2)c1 (centres unmarked) [Example 44, [benzothiazol-2-yl(3-fluoro-5-methylphenyl)methyl](1-methylpiperidin-4-yl)amine]	102	< 1000
CN1CCC(OC(c2cccc(-c3ccc(NC(=O)OC(C)(C)C)cc3)c2)c2nc3ccccc3[nH]2)CC1 (centres unmarked) [Example 138, {3′-[(1H-benzimidazol-2-yl)(1-methylpiperidin-4-yloxy)methyl]biphenyl-4-yl}carbamic acid tert-butyl ester]	135	< 300
CN1CCC(OC(c2cccc(Br)c2)c2nc3ccccc3s2)CC1 (centres unmarked) [Example 27, 2-[(3-bromo-phenyl)(1-methylpiperidin-4-yloxy)methyl]benzothiazole]	99	< 30
CCc1cccc(C(NC2CCN(C)CC2)c2nc3ccccc3[nH]2)c1 (centres unmarked) [Example 61, [(1H-benzimidazol-2-yl)(3-ethylphenyl)methyl](1-methylpiperidin-4-yl)amine]	76	< 30
CN1CCC(OC(c2ccc(F)cc2)c2nc3ccccc3[nH]2)CC1 (centres unmarked) [Example 179, 2-[(4-fluorophenyl)(1-methylpiperidin-4-yloxy)methyl]-1H-benzimidazole]	131	< 300
CN1CCC(OC(c2cccc(C#CCCCCNC(=N)NC(=O)OC(C)(C)C)c2)c2nc3ccccc3s2)CC1 (centres unmarked) [Example 341, N-tert-butoxycarbonyl-N′-(6-{3-[(benzothiazol-2-yl)(1-methylpiperidin-4-yloxy)methyl]phenyl}hex-5-ynyl)guanidine]	130	< 300
CN1CCC(OC(c2cccc(SCCNC(N)=O)c2)c2nc3ccccc3[nH]2)CC1 (centres unmarked) [Example 298, (2-{3-[(1H-benzimidazol-2-yl)(1-methylpiperidin-4-yloxy)methyl]phenylsulfanyl}ethyl)urea]	136	< 1000
CC(C)CCCOc1cccc(C(NC2CCN(C)CC2)c2nc3ccccc3[nH]2)c1 (centres unmarked) [Example 146, {(1H-benzimidazol-2-yl)[3-(4-methylpentyloxy)phenyl]methyl}(1-methylpiperidin-4-yl)amine]	73	< 300
CN1CCC(OC(c2cccc(SCc3ccccc3)c2)c2nc3ccccc3s2)CC1 (centres unmarked) [Example 148, 2-[(3-benzylsulfanylphenyl)(1-methylpiperidin-4-yloxy)methyl]benzothiazole]	195	< 300

Now from value to molecule:

melting point [°C]	Ki or IC50 activity class (human H4 receptor) [nM]	SMILES
130	< 300	CCOc1ccc(F)c(C(OC2CCN(C)CC2)c2nc3ccccc3[nH]2)c1F (centres unmarked) [Example 535]
129	< 300	CN1CCC(OC(c2nc3ccccc3[nH]2)c2cccc(-c3ccccc3)c2O)CC1 (centres unmarked) [Example 615]
84	< 300	CN1CCC(OC(c2cccc(C#CCCCN)c2)c2nc3ccccc3[nH]2)CC1 (single isomer, unassigned) [Example 565, 5-{3-[(1H-benzimidazol-2-yl)(1-methylpiperidin-4-yloxy)methyl]phenyl}pent-4-ynylamine]
108	< 1000	COc1cc(F)cc(C(OC2CCN(C)CC2)c2nc3ccccc3[nH]2)c1O (centres unmarked) [Example 610]
83	< 30	COc1cccc(C(OC2CCN(C)CC2)c2nc3ccccc3[nH]2)c1 (centres unmarked) [Example 542]
185	< 30	CN1CCC(OC(c2nc3ccccc3[nH]2)c2cc(Cl)ccc2O)CC1 (centres unmarked) [Example 569]
87	< 300	CCOC(=O)NCCCC#Cc1ccc(F)c(C(OC2CCN(C)CC2)c2nc3ccccc3[nH]2)c1 (centres unmarked) [Example 560]
146	< 300	COc1ccc(O)c(C(OC2CCN(C)CC2)c2nc3ccccc3[nH]2)c1 (centres unmarked) [Example 573]
116	< 30	CCSc1ccc(O)c(C(OC2CCN(C)CC2)c2nc3ccccc3[nH]2)c1 (centres unmarked) [Example 588]
198	< 300	CN1CCC(OC(c2nc3ccccc3[nH]2)c2cc(F)c(F)cc2O)CC1 (centres unmarked) [Example 583]
142	< 30	CN1CCC(OC(c2nc3ccccc3[nH]2)c2cc(F)ccc2O)CC1 (centres unmarked) [Example 572]
127	< 30	CN1CCC(OC(c2nc3ccccc3[nH]2)c2cc(SCCF)ccc2O)CC1 (centres unmarked) [Example 614]
145	< 30	CN1CCC(OC(c2nc3ccccc3[nH]2)c2cccc(F)c2O)CC1 (centres unmarked) [Example 581]
62	< 300	CN1CCC(OC(c2cccc(SCC3=NCCN3)c2)c2nc3ccccc3[nH]2)CC1 (centres unmarked) [Example 468, 2-[[3-(4,5-dihydro-1H-imidazol-2-ylmethylsulfanyl)phenyl](1-methylpiperidin-4-yloxy)methyl]-1H-benzimidazole]
139	< 1000	CN1CCC(OC(c2nc3ccccc3[nH]2)c2cc(C(C)(C)C)ccc2O)CC1 (centres unmarked) [Example 590]
79	< 300	CN1CCC(OC(c2nc3cc(F)c(F)cc3[nH]2)c2cc(OC(F)(F)F)ccc2F)CC1 (centres unmarked) [Example 511]
102	< 30	Cc1cc(O)c(C(OC2CCN(C)CC2)c2nc3ccccc3[nH]2)cc1F (centres unmarked) [Example 613]
142	< 30	CN1CCC(OC(c2nc3ccccc3[nH]2)c2ccc(Cl)cc2O)CC1 (centres unmarked) [Example 585]
95	< 300	CCOC(=O)NCCCC#Cc1ccc(F)c(C(OC2CCN(C)CC2)c2nc3cc(F)ccc3[nH]2)c1 (centres unmarked) [Example 570]
135	< 300	CN1CCC(OC(c2nc3ccccc3[nH]2)c2cc(C(F)(F)F)ccc2O)CC1 (centres unmarked) [Example 598]
129	< 30	CN1CCC(OC(c2nc3ccccc3[nH]2)c2c(O)cccc2F)CC1 (centres unmarked) [Example 582]
145	< 30	CN1CCC(OC(c2nc3ccccc3[nH]2)c2c(O)cccc2Cl)CC1 (centres unmarked) [Example 594]
